In brackets after ≈: the same amount, converted by molar mass.
Columns and labels:
in vitro = conditions: human, plasma, PPB
physchem [1] = conditions: octan-1-ol/water
physchem [2] = conditions: pH 7.4 buffer

Structure (SMILES) | fraction unbound at 5 h (in vitro) | logD (physchem [1]; pH 7.4, LogD7.4) | solubility thermodynamic (physchem [2]) | logD (physchem [1]; pH 7.4)
O=C(Nc1ccc(Cl)c(C(=O)Nc2cncs2)c1)c1cccc(C(F)(F)F)c1 | 0.004 |  |  | 
Cc1cn([C@H]2CCCN(Cc3ccc(C(=O)O)c(Oc4cccc(Cl)c4)c3)C2)c(=O)[nH]c1=O | 0.0268 |  |  | 
c1cc(-c2ccc3nc(Nc4ccc(OCCN5CCCC5)cc4)ncc3c2)ccn1 | 0.028 |  |  | 
NC(=O)c1cccc2c3c([nH]c12)CCCC3 | 0.28 |  |  | 
Fc1ccc(-c2c3cccc(C(F)(F)F)c3nn2Cc2ccc(F)cc2Cl)cc1 [LXR-623] | 0.0006 |  |  | 
CC(C)C[C@H](NC(=O)[C@H](Cc1ccccc1)NC(=O)c1cnccn1)B(O)O [BORTEZOMIB] | 0.132 |  |  | 
CN(C)CCNC(=O)c1ccc(Nc2ncc3cc(-c4ccncc4)ccc3n2)cc1 | 0.0111 |  |  | 
CS(=O)(=O)c1ccc(C2=C(c3ccccc3)C(=O)OC2)cc1 [ROFECOXIB] | 0.069 |  |  | 
CCOc1cc2ncc(C(N)=O)c(Nc3ccc(F)cc3F)c2cc1N1CCOCC1 | 0.0836 |  |  | 
O=C(O)[C@@H](c1ccc(OCc2ccc3ccccc3n2)cc1)C1CCCC1 [VELIFLAPON] | 0.0015 |  |  | 
Cc1nc(C(F)(F)F)ccc1C(=O)Nc1ccc(Cl)c(-c2ccccn2)c1 | 0.0099 |  |  | 
CCOc1cc2ncc(C(N)=O)c(Nc3cccc(Cl)c3Cl)c2cc1N1CCN(C(=O)CO)CC1 | 0.163 |  |  | 
COc1cc(OC)c(S(=O)(=O)N2c3ccccc3CCC2C)cc1NC(=O)Cc1ccnc(F)c1 (stereo not drawn) | 0.0544 |  |  | 
O=C1NCCc2[nH]c(-c3ccncc3)cc21 | 0.586 |  |  | 
CC(=O)Nc1ccc2ccn(-c3cc(NCCN4CCOCC4)n4ncc(C#N)c4n3)c2c1 | 0.112 |  |  | 
CC1=C(/C=C/C(C)=C/C=C/C(C)=C/C(=O)Nc2ccc(O)cc2)C(C)(C)CCC1 [FENRETINIDE] | 0.0019 |  |  | 
CCCNC(=O)c1cc2c(-n3ccc(C(F)(F)F)n3)c(-c3cncc(C(=O)O)c3)cnc2[nH]1 | 0.0768 |  |  | 
Nc1nc(OCC2CCC2)nc2c1ncn2[C@@H]1O[C@H](CF)[C@@H](O)[C@H]1O | 0.228 |  |  | 
O=C(COc1ccccc1Cl)c1ccc[nH]1 | 0.0676 |  |  | 
Cc1cnc(Nc2cc(N3CCOCC3)nc(N[C@@H](C)c3ccc(F)cn3)n2)s1 | 0.0262 |  |  | 
Cc1cc(NC(=O)c2ccccc2)n[nH]1 |  | 1.75 | 813 µM (≈ 164 µg/mL) | 
CN(C)CCOc1ccc(-c2oc3ncnc(NC[C@@H]4CCCO4)c3c2-c2ccccc2)cc1 |  | 3.6 | 69.2 µM (≈ 31.7 µg/mL) | 
COc1cc2c(Nc3cnc(NC(=O)c4ccccc4)nc3)ncnc2cc1OCCCN1CCOCC1 |  | 2.7 | 3.6 µM (≈ 1.86 µg/mL) | 

Structure (SMILES) | fraction unbound at 5 h (in vitro) | logD (physchem [1]; pH 7.4, LogD7.4) | solubility thermodynamic (physchem [2]) | logD (physchem [1]; pH 7.4)
O=c1[nH]c2cc(Cl)ccc2c(O)c1-c1cccc(Oc2ccccc2)c1 |  | 2.96 | 2.5 µM (≈ 0.909 µg/mL) | 
FC(F)(F)c1nnc2ccc(NCc3cccnc3)nn12 |  | 2.06 | 380 µM (≈ 112 µg/mL) | 
CCn1c(=O)ccc2cc(COc3cc(F)cc(C4(OC)CCOCC4)c3)ccc21 |  | 3.89 | 1.7 µM (≈ 0.7 µg/mL) | 
O=C(CO)N1CCC[C@H]1COc1cccc2ncnc(Nc3ccc(OCc4ccccn4)c(Cl)c3)c12 |  | 3.62 | 1.9 µM (≈ 0.988 µg/mL) | 
COc1cc2c(Nc3ncc(CC(=O)Nc4cccc(F)c4)s3)ncnc2cc1OCCCN1CCC(CO)CC1 |  | 2.89 | 26.9 µM (≈ 15.6 µg/mL) | 
Nc1ncc(-c2cnn(C3CCNCC3)c2)cc1-c1nc2ccccc2o1 |  | 1.85 | 2.3 µM (≈ 0.829 µg/mL) | 
Cn1c(C#N)ccc1-c1ccc2c(c1)C(C)(C)OC(=S)N2 [TANAPROGET] |  | 3.4 | 3.6 µM (≈ 1.07 µg/mL) | 
CCn1cc(NC(=O)Cc2ccc(Oc3ccnc4cc(F)ccc34)cc2OC)cn1 |  | 3.93 | 2 µM (≈ 0.841 µg/mL) | 
COCCN(c1ccnc(Nc2cc(N3CCOCC3)cc(N3CCOCC3)c2)n1)c1cc(CO)ccc1C |  | 2.8 | 302 µM (≈ 161 µg/mL) | 
COc1cc2ncnc(Nc3cccc(Cl)c3F)c2cc1CN(C)C1(C(N)=O)CCN(C)CC1 |  | 2.16 | 282 µM (≈ 137 µg/mL) | 
CN1CC(n2nccc2-c2cc(Cl)ccc2Oc2cc(F)c(S(=O)(=O)Nc3ncns3)cc2F)C1 |  | 1 | 47.9 µM (≈ 25.8 µg/mL) | 
O=C(/C=C/Sc1nc[nH]n1)c1ccc(Cl)cc1 |  | 3.1 | 35.5 µM (≈ 9.43 µg/mL) | 
CNc1ncc(C(=O)c2ccccc2)s1 |  | 2.36 | 724 µM (≈ 158 µg/mL) | 
N#Cc1nc(N2CCOCC2)nc(N2CCOCC2)n1 |  |  | 77.6 µM (≈ 21.4 µg/mL) | 1.51
Cc1nc2ccc(Cl)cn2c1-c1ccnc(N)n1 |  | 2.49 | 759 µM (≈ 197 µg/mL) | 
O=C(NC1CCCCC1)C1CCCN(S(=O)(=O)c2cccs2)C1 (stereo not drawn) |  | 2.93 | 4.2 µM (≈ 1.5 µg/mL) | 
CSc1ccc(C(=O)C(C)(C)N2CCOCC2)cc1 |  |  | 52.5 µM (≈ 14.7 µg/mL) | 3.49
COc1cc(N2CCN(C(C)=O)CC2)ccc1Nc1ncc(Cl)c(-c2cnc3c(CO)cccn23)n1 |  | 3.1 | 0.5 µM (≈ 0.254 µg/mL) | 
CCc1ccc(NC(=O)c2ccc3cc(C(=N)N)ccc3c2)cc1 |  | 1.1 | 8.5 µM (≈ 2.7 µg/mL) | 
CC(=O)c1noc(C)c1C(=O)Nc1nccs1 |  | 1.94 | 46.8 µM (≈ 11.8 µg/mL) | 
Cc1cccc(NS(=O)(=O)c2ccc(-c3ccc(C#N)cc3)cc2)n1 |  | 2.42 | 17.4 µM (≈ 6.08 µg/mL) | 
Cn1c(C#N)ccc1-c1cc(F)c2c(c1)C(C)(C)C(=O)N2 |  | 3.21 | 5.4 µM (≈ 1.53 µg/mL) | 
CC(=O)Nc1ccc(C(=O)Nc2ccccc2N)cc1 [TACEDINALINE] |  | 0.82 | 631 µM (≈ 170 µg/mL) | 

Structure (SMILES) | fraction unbound at 5 h (in vitro) | logD (physchem [1]; pH 7.4, LogD7.4) | solubility thermodynamic (physchem [2]) | logD (physchem [1]; pH 7.4)
COc1cc(-c2cccc3c(=O)cc(N4CCOCC4)oc23)ccc1NC(=O)CN1CCOCC1 |  | 2.3 | 13.2 µM (≈ 6.33 µg/mL) | 
COc1cc2ncnc(Nc3cc4ccccc4cn3)c2cc1OC |  | 3.9 | 0.3 µM (≈ 0.0997 µg/mL) | 
COc1cc(C(=O)NS(=O)(=O)c2ccccc2)ccc1Cn1ncc2ccc(NC(=O)CC3CCCC3)cc21 |  | 1.6 | 251 µM (≈ 137 µg/mL) | 
COCCOc1cc(Nc2nccc(N(C)c3cc(CO)ccc3C)n2)cc(N2CCOCC2)c1 |  | 3.3 | 126 µM (≈ 60.4 µg/mL) | 
CCOc1ccc2nc(N)sc2c1 |  | 2.4 | 851 µM (≈ 165 µg/mL) | 
COc1cc(N2CCN(C(C)=O)CC2)ccc1Nc1ncc(OC)c(-c2cnc3ccccn23)n1 |  | 3.2 | 1.3 µM (≈ 0.616 µg/mL) | 
COc1cc(CCc2cc(Nc3ccnc(NCc4cc(C)no4)n3)n[nH]2)cc(OC)c1 |  | 3.1 | 0.6 µM (≈ 0.261 µg/mL) | 
Nc1ccccc1NC(=O)c1ccc(CNc2nccc(-c3cccnc3)n2)cc1 [MOCETINOSTAT] |  | 2.28 | 13.5 µM (≈ 5.35 µg/mL) | 
Clc1n[nH]c2cccc(Nc3ccnc(Nc4cc(N5CCOCC5)cc(N5CCOCC5)c4)n3)c12 |  | 2.78 | 5.1 µM (≈ 2.59 µg/mL) | 
COc1cc(CO)cc(N(C)c2ccnc(Nc3cc(N4CCOCC4)cc(N4CCOCC4)c3)n2)c1 |  | 3 | 195 µM (≈ 98.8 µg/mL) | 
Cc1ccc(Oc2ccc(Nc3ncnc4cccc(O[C@H](C)C(=O)N(C)CCO)c34)cc2C)cn1 |  | 3.85 | 63.1 µM (≈ 30.8 µg/mL) | 
CS(=O)(=O)C1(c2cc(N3CCOCC3)nc(-c3cccc4[nH]ccc34)n2)CCNCC1 |  | 0.7 | 234 µM (≈ 104 µg/mL) | 
COc1ccc(C(=O)C2CCN(C(=O)c3ccc(F)cc3)CC2)cc1 |  | 2.92 | 204 µM (≈ 69.7 µg/mL) | 
COc1cc(Nc2ncnc3cccc(O[C@H](C)C(=O)N4CCOCC4)c23)ccc1Oc1ccc(C)nc1 |  | 3.6 | 37.2 µM (≈ 19.2 µg/mL) | 
Cc1ccc(Oc2ccc(Nc3ncnc4cccc(O[C@H](C)C(=O)N5CCOCC5)c34)cc2C)cn1 |  | 4.14 | 7.6 µM (≈ 3.8 µg/mL) | 
CCOC(=O)c1ccc(COCC2CCN(c3ccc(C)nn3)CC2)cc1 |  | 2.68 | 468 µM (≈ 173 µg/mL) | 
NC1(Cc2ccc(Cl)cc2)CCN(c2ncnc3[nH]ccc23)CC1 |  | 2.72 | 339 µM (≈ 116 µg/mL) | 
O=C(Nc1ccc(Cl)c(Cl)c1)N1CCN(C[C@@H]2CCCN(C3CC3)C2)CC1 |  | 3.57 | 288 µM (≈ 119 µg/mL) | 
Cc1cc(C)cc(-c2[nH]c3ccc(C(C)(C)C(=O)N4C5CCC4CC5)cc3c2CCNCCCCc2ccncc2)c1 |  | 4.3 | 35.5 µM (≈ 20 µg/mL) | 
CC(=O)N1CCN(c2ccc(Nc3nccc(-c4cnc(C)n4C(C)C)n3)cc2)CC1 |  | 2.39 | 148 µM (≈ 62 µg/mL) | 
Cc1ncc(-c2nc(Nc3ccc(C(=O)N4CCN(C)CC4)cc3)ncc2F)n1C(C)C |  | 2.49 | 57.5 µM (≈ 25.2 µg/mL) | 
COc1cc(N2CCN(CCO)CC2)ccc1Nc1ncc(Cl)c(-c2cnc3ccccn23)n1 |  | 3.2 | 66.1 µM (≈ 31.7 µg/mL) | 
CS(=O)(=O)Cc1cc(N2CCOCC2)nc(-c2cccc3cc[nH]c23)n1 |  | 2.8 | 1.1 µM (≈ 0.41 µg/mL) | 

— ChEMBL document CHEMBL3301361, “Experimental in vitro DMPK and physicochemical data on a set of publicly disclosed compounds”
